Data: US20030099677A1, “Cosmetic composition and method of treating skin” (Unilever Home & Personal Care USA, Division of Conopco. Inc., priority 2001, published 2003)

Experiments:
Assay type in all cases: cell-based
[1] = system: procollagen-I synthesis in human dermal fibroblasts; test: Dot blot assay for procollagen-I in dermal fibroblast conditioned medium; conditions: for Pro-collagen: 24 hours, relative to vehicle treated control value of 100
Experimental: (§1) Primary human foreskin fibroblasts at passage 2 (P2) were seeded into 12-well plates at 10000 cells/cm^2 and maintained for 24 hours in an atmosphere of 5% carbon dioxide and 4% oxygen in Dulbeccos Modified Eagles Medium (DMEM) supplemented with 10% foetal calf serum. After this time the cells were washed with serum free DMEM and then incubated in fresh serum free DMEM for a further 60 hours. The fibroblast monolayers were then washed again with serum free DMEM. Test reagents and vehicle controls were added to the cells in triplicate in a final volume of 0.4 ml/well fresh serum free DMEM and incubated for a further 24 hours. This fibroblast conditioned medium was either analysed immediately or snap frozen in liquid nitrogen and stored at −70° C. for future analysis. The cells were then counted and data from the dot-blot analysis subsequently standardised to cell number.
(§2) Samples of conditioned medium from dermal fibroblasts treated with vehicle (as a control) or test reagents were supplemented with 20 mM dithiothreitol (1:10 dilution of 200 mM stock solution) and 0.1% sodium dodecylsulphate (1:100 dilution of 10% stock solution), mixed well and then incubated at 75° C. for 2 minutes. […]
(§3) Following this the Immobilon strips were again washed with TBS/Tween 20 (3×5 minutes) before being allowed to dry in air at room temperature. […] Dot intensity was assessed by computer-assisted image analysis using the quantification tools in ImageQuant™, standardised to cell number and the effects of various test reagents on decorin and procollagen-I synthesis were determined relative to a vehicle treated control value of 100 arbitrary units.
(§4) Tables 1 indicates the effects of trans-7-octadecanoic acid on procollagen-I and decorin synthesis in human dermal fibroblasts, and the amounts in which it was applied. In order to normalize the results the effects of the test substance was determined relative to a vehicle treated control value of 100 arbitrary units.

[2] = system: decorin synthesis in human dermal fibroblasts; test: Dot blot assay for decorin in dermal fibroblast conditioned medium; conditions: for Decorin: 24 hours, relative to vehicle treated control value of 100
Experimental: as §1, §2, §3, §4

[3] = system: Human foreskin keratinocytes; test: Keratinocyte cornified envelope assay (marker of keratinocyte differentiation)
Experimental: Method to Assess Effect of Active on Keratinocyte Cornified Envelope Production—a Marker of Keratinocyte Differentiation
(§5) […] The cells were grown for 3 days prior to treatment. The treatment vehicle was DMSO. After 4 days of treatment, the cells were harvested and washed three times with 100 μl phosphate buffered saline (PBS). The cells were then extracted in 1% Triton X100, 50 mM Tris pH 8.0, 0.02 mM Leupeptin, 0.02 mM Pepstatin. 60 μl/well extract was then assayed for DNA concentration (ng/well), Pico Green DNA assay, Molecular Probes.
The cells were then washed in 200 μl PBS, and then 100 μl of 2% SDS, 20 mM DTT was added to each well. The plates were then sealed with a Titertek plate sealer (ICN) and incubated at 60° C. over night in an air-tight damp environment (i.e. a sealed sandwich box lined with damp paper). The extract was then filtered through a PVDF transfer membrane (Bio-rad) under gravity using Dot-Blot apparatus (Bio-rad). The membrane was then washed in distilled water prior to silver staining (Bio-rad Silver Stain kit). The stained dot blot membrane was then analyzed using Phoretix array software (Phoretix International).

[4] = system: Human foreskin keratinocytes; test: Pico Green DNA assay of keratinocyte extracts (proliferation)
Experimental: as §5

[5] = system: Transglutaminase activity in pigskin epidermis; test: In situ TGase assay in pig skin organ culture; conditions: for Transglutaminase activity (fluorescence-background) Mean: pig organ culture, 48 hours
Experimental: Porcine back skin was prepared by carefully removing subcutaneous fat and muscle resulting in a skin sample 3-4 mm thick. Hair was clipped and the skin was washed in water, removing any residual blood or dirt. The skin sample was cut into 7 cm×7 cm squares and incubated in 5% Dettol (sterile) for 1 hr at room temp (RT). It was then incubated in DMEM containing ABAM (5 mL/500 mL of medium) for 1 hr. Hydrocortisone 21-hemisuccinate (100îg/mL, sterile filtered) was added to DMEM+ABAM. Tripods and meshes were set up on petri dishes containing 3 ml of media (DMEM/ABAM/hydrocortisone), creating a negative meniscus. Punch biopsies were taken from the skin and placed onto the mesh (4 per dish), and then incubated for 24 hrs at 37° C., 5% CO2 before being treated. Media was changed daily.
A stock solution of 10 mM Biotinylated monodansylcadaverine in 0.013M HCl was, and stored at −20° C. From the stock solution substrate buffer was prepared: 0.1 mM biotinylated monodansylcadaverine, 5 mM CaCl2 in 100 mM Tris HCl. 5 mM CaCl2 was replaced with 200 mM EDTA for a […] control.
Pig skin biopsies were snap frozen in liquid nitrogen and stored at −20° C. Sections were cut (5-8 microns thick, Brights cryostat) and air-dried for 10 minutes at room temperature (RT). The sections were incubated for 30 minutes at RT with 1% BSA in 0.1M Tris/HC1, pH 8.4 then incubated in substrate buffer for 2 hours at RT. The slides were washed to stop the reaction in 25 mM EDTA in PBS for 5 minutes, followed by two washes in PBS. The slides were then incubated in Alexa fluor 488 streptavidin (1:250) for 30 minutes at RT, then washed in PBS as before. The slides were counterstained with 10îg/ml propidium iodide for 10 seconds, then washed in water and mounted in prolong antifade solution. Sections were visualised using a Microscope (Leica, Leitz DMRB, Leitz ploemopak filter block L3, Milton Keynes, Bucks. UK) and images were captured using Image Grabber PC Software (Neotech Ltd. Eastleigh, Hampshire, UK). […]

[6] = human dermal fibroblasts, statement in words
[7] = Table 3, 1 μM, grown in 1.2 mM calcium
[8] = Table 4, 0.001 μM, low calcium, P = 0.002

## CCCCCCCCCC/C=C/CCCCCC(=O)O [Trans-7-octadecanoic acid, trans-7-octadecanoic acid]
[1]; 0.1 μM
  Pro-collagen: 194.96 arbitrary units
[1]; 1.0 μM
  Pro-collagen: 126.63 arbitrary units
[1]; [6]
  effect on synthesis of procollagen-I as compared to the control: significantly up-regulates
[2]; 1.0 μM
  Decorin: 163.10 % of vehicle control
[2]; 10.0 μM
  Decorin: 134.04 % of vehicle control
[2]; [6]
  effect on synthesis of decorin as compared to the control: significantly up-regulates
[3]; Table 2, 1 μM, grown in 1.2 mM calcium, 4 days of treatment
  Cornified Envelope Assay Mean: 57900
[3]; Table 2, 10 μM, grown in 1.2 mM calcium, 4 days of treatment
  Cornified Envelope Assay Mean: 54689
[3]; Table 2, 50 μM, grown in 1.2 mM calcium, 4 days of treatment
  Cornified Envelope Assay Mean: 49272
[3]; Table 2, 100 μM, grown in 1.2 mM calcium, 4 days of treatment
  Cornified Envelope Assay Mean: 42110
[3]; Table 3, 0.1 μM, grown in 1.2 mM calcium
  Cornified Envelope Assay Mean: 37930
[3]; [7]
  Cornified Envelope Assay Mean: 47773
[3]; [8]
  Cornified Envelope Assay Mean: 39627
  Cornified Envelope assay % control: 212 % control
[3]; Table 4, 0.01 μM, low calcium
  Cornified Envelope Assay Mean: 22221
  Cornified Envelope assay % control: 119 % control
[3]; in low calcium, at low concentrations, statement in words
  effect on cornified envelope production: induces cornified envelope production
[4]; Table 2, 1 μM, grown in 1.2 mM calcium, p < 0.05
  DNA Mean: 9 ng/well
[4]; Table 2, 10 μM, grown in 1.2 mM calcium, p < 0.05
  DNA Mean: 7 ng/well
[4]; Table 2, 50 μM, grown in 1.2 mM calcium
  DNA Mean: 6 ng/well
[4]; Table 2, 100 μM, grown in 1.2 mM calcium
  DNA Mean: 4 ng/well
[4]; Table 3, 0.1 μM, grown in 1.2 mM calcium, P < 0.05
  DNA Mean: 5 ng/well
[4]; [7]
  DNA Mean: 6 ng/well
[4]; Table 4, 0.001 μM, low calcium
  DNA % control: 100 % control
  DNA Mean: 1.41 ng/well
[4]; Table 4, 0.01 μM, low calcium
  DNA % control: 100 % control
  DNA Mean: 1.42 ng/well
[4]; in high calcium, statement in words
  effect on keratinocyte proliferation: proliferation enhancer
[5]; 0.1 μM
  Transglutaminase activity (fluorescence-background) Mean: 1908
[5]; 1 μM, intact pigskin epidermis, statement in words
  effect on transglutamine cross linking activity: induces transglutamine cross linking activity
[5]; 1 μM
  Transglutaminase activity (fluorescence-background) Mean: 2268
